Assay results taken from US20080014149A1, “Methods and Compositions for Imaging and Biomedical Applications” (priority 2004, published 2008).
Where two headings read alike, the source gives them in different places.

Legend:
[1] = R1 and R2 relaxivity from water T1/T2 measurements by NMR; assay type: physicochemical; conditions: for R1: deuterium oxide, Unity-600 MHz, 25±0.1° C.
Experimental: The R2 and R1 of 19a and 18a were calculated to show cleavage of the T2/T1 quenching detectable construct 19a generated a large enough change in R2 to allow for enzyme detection. The compound 19a represents an intact T2/T1 quenching detectable construct and the compound 18a represents a polymeric gadolinium detectable construct remainder resulting from cleavage of the reaction region. The R1 and R2 of 19a and 18a were measured in deuterium oxide in a Unity-600 MHz (Varian, Inc.) at 25±0.1° C. T1 and T2 measurements of water relaxation times were measured at various concentrations of 19a and 18a, and a plot of 1/T1 and 1/T2 was made against the concentration; the relaxivities R1 and R2 were determined by the slope of this graph using equation 1 (Caravan 1991), [formula] where 1/T1 is the relaxation rate of the water proton induced by the paramagnetic and diamagnetic species present in solution, and 1/T1 (diamagnetic) is the relaxation rate in the absence of the paramagnetic species. R1 and R2 of 18a were calculated to be 3.34 mM^−1s^− and 6.8 mM^−1s^−1 and the R1 and R2 of 19a were 4.0 mM^−1s^−1 and 21.77 mM^−1s^−1 (see FIG. 19).

[2] = Imaging DTT with 19b and 25 in agarose gels (MRI); conditions: 0.5 mM in 2% agarose hydrogels, 50 mM DTT, vials filled with PBS
Experimental: The T2/T1 quenching detectable constructs 19b and 25 are loaded into 2% agarose hydrogels at a concentration of 0.5 mM. The hydrogels have a volume of 0.5 ml and are made in 10 ml scintillation vials. After the hydrogels form, the vials are filled with PBS buffer, pH 7.4, and then imaged in either a 9.4 Tesla MRI machine or a 17.8 Tesla MRI machine (University of Florida). The best TR/TE parameters are selected from calculations using the spin-echo signal equation with respect to the relaxation times and the TR/TE. The TE and TR are chosen such that the signal intensity of the hydrogels loaded with 19b and 25 is lower than or equal to pure agarose hydrogels. These calculations are based on the R1 and R2 of 19b and 25. DTT is added to the scintillation vials to generate a 50 mM concentration of DTT in the vials. The control hydrogels for this experiment consist of hydrogels that contain 50 mM DTT, without 19b or 25. The signal intensity of the gels is measured every hour for 48 hours. The T1 and the T2 of the gels is measured every hour, the T1 is measured using an inversion recovery sequence, for which the sequence parameters will be selected based on the values of R1 and R2 of 19b and 25. The T2 will be measured using a Carr-Purcell-Meiboom-Gill (CPMG) sequence with TEs chosen from the values of R2 for 19b and 25 (Haacke 1999).

[3] = Water exchange rate of dysprosium chelate; assay type: physicochemical
Text: This is a derivative form of DTPA. The chelator molecule of this example is considered a modification of the detectable detectable agent, wherein the chelator molecule has substitutions. The R2 of dysprosium chelates is inversely proportional to the water exchange rate, particularly for macromolecular dysprosium chelates at high field strengths (Vander 2002 and Caravan 2001) The dysprosium chelate detectable construct remainder in 25 has a greater R2 than the dysprosium chelate detectable construct remainder in 19b and also generates a larger change in tissue T2 after cleavage and diffusion away from the polymeric gadolinium detectable construct remainder. The R1 and R2 of 25 is determined using a 600 MHz NMR machine as described in Example 2.

[4] = Imaging DTT with 33 in agarose hydrogels (MRI); conditions: vials not filled with buffer
Experimental: An experimental procedure similar to that outlined in Example 4 is used to image DTT, except that the hydrogels are loaded with compound 33. The scintillation vials which contain the gels are not filled with buffer. This ensured that the cleaved dysprosium remains in the gel and that changes in T2 and signal intensity are due to changes in the rotational correlation time of dysprosium. The DTT is directly added to hydrogels as a concentrated solution. The gels are analyzed in a manner similar to Example 4. The control for this experiment is agarose hydrogels that just contain DTT. […] Problems with synthesis of 33 due to its high polydispersity may result from the free radical polymerization used to generate 28. This problem can be solved by using atom transfer radical polymerization (ATRP) to synthesize 28, using a protected methacrylic acid monomer and an (ATRP) initiator with a functional handle.

[5] = system: T1, PEG-Peptide-DTPA-Dy containing MMP-7 substrate peptide-DTPA
T1 sequence: RPLALWRSGCG

[6] = in water, cited from earlier work
[7] = Diffusion coefficient in water (literature); assay type: physicochemical
Text: Another example of a detectable construct of the present invention is shown in FIG. 15, wherein the detectable construct comprises a first detectable agent, comprising a metal ion and a chelator, covalently bonded to a linking region comprising PEG(polyethylene glycol) MW 80 kD, which is covalently bonded to a reaction region that is a substrate that can be cleaved by an enzyme or chemical process, which is covalently bonded to a second detectable agent comprising a chelator and a metal ion. In this particular example, the first detectable agent is Gadolinium associated with the chelator DTPA, and the second detectable agent is Dysprosium associated with the chelator DTPA. This detectable construct can be used in a method based upon the counteracting effects of T1 and T2 contrast agents on MRI signal intensity. Gadolinium is the T1 contrast agent and dysprosium is the T2 contrast agent. The dysprosium detectable agent is connected to the PEG chain through a cleavable linkage, such as a disulfide bond or an enzyme cleavable peptide linkage. Cleavage of 3a generates a low molecular weight dysprosium detectable construct remainder (4) and a high molecular weight PEG gadolinium detectable construct remainder. […]
At present, tumors can only be detected after they reach mm-cm dimensions. […]

MMP-9 = MMP-9 (Homo sapiens, UniProt P14780); assay: Imaging MMP-9 with 40 and 42 in agarose gels (MRI); assay type: biochemical; conditions: agarose hydrogels
[8] = system: MMP-7 expressing SW480mat xenograft tumors; assay: In vivo imaging of MMP-7 activity in mouse xenograft tumors (MRI); set-up: species or system athymic nude mice; conditions: expectation; mice with MMP-7 expressing tumors, 9.4 Tesla
Text: MMP-7 activity is imaged in athymic nude mice which have been given MMP-7 expressing xenograft tumors, using the T2/T1 quenching detectable construct, gadolinium-PEG-RPLALWRSC-dysprosium (46, FIG. 26). This compound contains a reaction region that is the MMP-7 cleavage site, RPLALWRSC, (SEQ ID NO: 2). […] See FIG. 26 for the synthesis of 46.
The resulting tumors are allowed to grow up to a size of 1-2 cm (4-6 weeks). During this period, the mice are imaged at various times points ranging from 3 days to 6 weeks after the injection of the tumor cells, according to the following procedure: after proper anesthetization, a catheter is inserted into the tail vein of the mice, a composition comprising the detectable construct 46 is injected through the catheter and the mice are imaged every hour for 24 hours in a 9.4 Tesla MRI machine (Emory University), measuring the MRI signal intensity, tissue T1 and tissue T2.
The signal intensity and T2 of the MMP-7 expressing tumors is compared against the control tumors. If the signal intensity of the MMP-7 expressing tumors is greater than the controls, then MMP-7 successfully cleaved 46, resulting in an increase in MRJ signal intensity and the imaging of MMP-7. Furthermore, data is obtained relating to the sensitivity of the method to image early tumor activity, as well as ratiometric information relating to tumor growth.

[9] = system: trypsin Dy only detectable construct (cleavable PEG-peptide-dysprosium, FIG. 24)
[10] = listed as DTPA-Dy detectable construct remainder

Chain of MMP-9 (P14780 94-707, species assumed): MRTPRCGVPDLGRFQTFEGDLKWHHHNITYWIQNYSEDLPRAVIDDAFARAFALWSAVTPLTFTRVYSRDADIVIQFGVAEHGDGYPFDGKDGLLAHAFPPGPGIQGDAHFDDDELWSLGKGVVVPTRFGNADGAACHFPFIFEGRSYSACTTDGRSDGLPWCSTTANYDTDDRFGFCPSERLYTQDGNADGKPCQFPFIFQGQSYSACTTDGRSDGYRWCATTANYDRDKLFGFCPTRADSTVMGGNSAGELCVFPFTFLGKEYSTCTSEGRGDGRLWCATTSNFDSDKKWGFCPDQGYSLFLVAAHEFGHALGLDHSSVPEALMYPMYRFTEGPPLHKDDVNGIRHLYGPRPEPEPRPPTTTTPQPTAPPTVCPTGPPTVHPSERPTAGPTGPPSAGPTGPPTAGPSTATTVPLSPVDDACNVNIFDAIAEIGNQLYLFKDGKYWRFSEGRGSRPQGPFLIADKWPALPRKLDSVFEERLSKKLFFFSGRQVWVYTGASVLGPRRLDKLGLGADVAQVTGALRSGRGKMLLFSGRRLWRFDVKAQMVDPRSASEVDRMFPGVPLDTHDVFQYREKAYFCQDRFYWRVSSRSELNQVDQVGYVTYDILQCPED

In the case of “Gadolinium-PEG-S—S-Dysprosium [Compound 19a]”, the “decrease in R1 between 19a and 18a” value ([1]; 19a versus 18a) is reported as 16.5% and the R1 [1] is reported as 4.0 mM⁻¹ s⁻¹.
With “Gadolinium-PEG-S—S-Dysprosium [Compound 19b]” the “MRI signal intensity of agarose gels after addition of DTT” value (shortened to “MRI signal intensity of agarose gels”) [2] was “increases the signal intensity”.
With “Gadolinium-PEG-S—S-Dysprosium-Diamide [Compound 25]” the “water exchange rate τm, times lower than the dysprosium chelate in 19b” value [3] was 34 times and the “MRI signal intensity of agarose gels” value [2] was “increases the signal intensity”.
In the case of “Gadolinium-Poly(Methacrylic Acid)-PEG-S—S-Dysprosium [Compound 33]”, the “MRI signal intensity of agarose gels” value [4] is reported as “increases the signal intensity”.
With MMP-7 the “T2 signal (NMR in D2O buffer, 37 C, 4.5 hours)” value [5] was “upon treatment of micelles with MMP-7 that the T2 signal increase by over two-fold”.
Thiol-PEG-DTPA-Gd [Compound 18a] showed an R1 [1] of 3.34 mM⁻¹ s⁻¹.
For “dysprosium-diethylenetriaminepentaacetic (DTPA) [DTPA-dysprosium]”, the “diffusion coefficient Dwater” value [6] is given as 3.8×10^−6 cm^2/s, the “diffusion coefficient Dwater” value [6, 10] is given as “approximately 3.8×10^−6 cm^2/s” and the “ratio of diffusion coefficient to that of PEG 80 kD” value [7] is given as 17 fold. For the same substance, the “ratio of diffusion coefficient to that of PEG 80 kD” value [7, 10] was “roughly 17 fold”.
In the case of “gadolinium-PEG-Pro-Val-Gly-Leu-Ile-Gly-dysprosium [Compound 40]”, the “MRI signal intensity on cleavage by MMP-9” value (MMP-9) is reported as “increase in signal intensity”.
With “gadolinium-PEG-RPLALWRSC-dysprosium [Compound 46]” the “MRI signal intensity on cleavage by MMP-7” value [8] was “increase in MRI signal intensity”.
With “gadolinium-poly(methacrylic acid)-Pro-Val-Gly-Leu-Ile-Gly-dysprosium [Compound 42]” the “MRI signal intensity on cleavage by MMP-9” value (MMP-9) was “increased signal intensity”.
In the case of trypsin, the “water T2 (400 MHz NMR in D2O), construct 16 mg/ml, trypsin 0.025 mg/ml” value [9] is reported as “After adding trypsin, T2 increases by 52.3%”.
